This note sets out measurements from patent publication US20050175599A1, “Process for producing substance” (Kyowa Hakko Kogyo Co., Ltd., priority 2001, published 2005).

The subject of experiment [1] is transformant cell line 61-33γ (host YB2/0) producing a chimeric anti-GD3 antibody. The experiment can be described thus: Batch culture of antibody-producing cells in Q10-containing serum-free medium (Example 1). Particulars: Q10-added culture, 500 μM Q10 (added as SANOMIT), batch culture 6 days. The experiment is classed as cell-based, rat. The method, then:
The following batch culture was performed with transformant cell line 61-33γ (FERM BP-7325, WO 01/29246) which was obtained by using hybridoma cell line YB2/0 derived from a rat myeloma cell line as a host cell and produces a chimeric anti-GD3 antibody. […]
From the start to the completion of culturing, the liquid culture was sampled once a day, to assay the viable cell density (cells/mL) and the antibody concentration (μg/mL) respectively. Further, the viable cell density was measured by a dye-exclusion method using 0.4% trypan blue solution.
The cumulative number of viable cells is shown as the total sum of the viable cell density multiplied by the time as elapsed. In the present Example, the viable cell density was measured once a day, and the cumulative number of viable cells was shown as value of the additive sum of the individual viable cell densities measured each time (cells/mL×days).
Additionally, the specific antibody production rate and the relative specific antibody production rate were calculated respectively by the following equations. […]

Experiment [2] has the same test system. The experiment can be described thus: Fed-batch culture of antibody-producing cells in Q10-containing medium (Example 2). The experiment is classed as cell-based, rat. Particulars: Q10-added culture, 50 μmol/L Q10 dissolved in Tween 80, fed-batch culture 11 days. The method, then: The following fed-batch culture was performed with transformant cell line 61-33γ (FERM BP-7325) which was obtained by using hybridoma cell line YB2/0 derived from a rat myeloma cell line as a host cell and produces a chimeric anti-GD3 antibody.
In a T-225 cm^2 flask charged with 30 mL of a serum-free medium (Hybridoma-SFM; manufactured by Invitrogen Corporation), the cells were inoculated to a cell density of 3×10^5 cells/mL, followed by stationary culture in a 5%-CO2 incubator at 37° C. for 3 days.
On the completion of culturing, the resulting cells were inoculated in a 1-liter spinner flask (manufactured by Shibata Hario, Co., Ltd.) containing 0.7 liter of Hybridoma-SFM to 3×10^5 cells/ml. While adjusting the liquid culture to pH 7.1 ±0.1 and the dissolved oxygen concentration to 3±0.2 ppm, culturing was carried out at 37° C. for 11 days under the condition of stirring at 50 rpm. Aeration was carried out via a porous polytetrafluoroethylene tube arranged in the spinner flask, and a mixture gas of air, oxygen and carbon dioxide was supplied. Additionally, the pH was controlled by changing the ratio of air and carbon dioxide and by feeding 1 mol/L sodium carbonate solution. Furthermore, the dissolved oxygen concentration was controlled by changing the ratio of air and oxygen. […]

`COC1=C(OC)C(=O)C(C/C=C(\C)CC/C=C(\C)CC/C=C(\C)CC/C=C(\C)CC/C=C(\C)CC/C=C(\C)CC/C=C(\C)CC/C=C(\C)CC/C=C(\C)CCC=C(C)C)=C(C)C1=O` [Q10]: the figures for the “cumulative number of cells on the completion of culturing” value in experiment [1] (Q10-free culture 1.71×10^7) and in experiment [2] (Q10-free culture 2.97×10^7) were 1.51×10^7 cells/mL×days and 3.98×10^7 cells/ml×days, respectively. The entries for the “relative specific antibody production rate” value in experiment [1] (Q10-free culture = 100%) and in experiment [2] (Q10-free culture = 100%) were 166.3% and 137.1%, respectively.
